# PMC12298827, “Subchronic Toxicities of Four Per- and Polyfluoroalkyl Substances (PFASs) by Oral Exposure in Sprague–Dawley Rats” (Toxics, 2025)
# Test system: male and female Sprague–Dawley rats
# Experiment: 90-day subchronic oral gavage toxicity study
# Type: in vivo, rat
# Set-up: key to NOEL, absolute liver weight increase / LOEL, absolute liver weight increase / NOEL, relative kidney weight increase / LOEL, relative kidney weight increase / NOEL, absolute kidney weight increase / LOEL, absolute kidney weight increase / NOEL, relative liver weight increase / LOEL, relative liver weight increase: NR: no response, no statistically significant dose-dependent changes
# Method in brief: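 Ten rats per sex per group got corn-oil gavage (3 mL/kg) at five doses or vehicle for 90 days, necropsy on SD 91. Assessed weekly weights and food intake, neurobehavior (FOB, locomotor), eyes, terminal blood panels with plasma PFAS, organ weights and H&E histology; Dunnett's test against control, two-sided 0.05.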
compound,measurement,setting,value
"CC(=O)C(F)(F)C(F)(F)C(F)(F)F [MHFPK, Methyl heptafluoropropyl ketone]",MPV,"female, 300 mg/kg-day",9.01 ± 0.50 fL
same,PT,"female, 300 mg/kg-day",15.33 s
same,RBC,"female, 300 mg/kg-day",8.159±0.351 M/µL
same,Total BW change,"female, 300 mg/kg-day",95.70 g
same,Total Food Consumed,"female, 300 mg/kg-day",1575 g
same,"LOEL, absolute kidney weight increase",male,NR
same,"LOEL, absolute liver weight increase",male,NR
same,"LOEL, relative kidney weight increase",male,NR
same,"LOEL, relative liver weight increase",male,NR
same,"NOEL, absolute kidney weight increase",male,NR
same,"NOEL, absolute liver weight increase",male,NR
same,"NOEL, relative kidney weight increase",male,NR
same,"NOEL, relative liver weight increase",male,NR
same,% BW Gain,"male, 18.8 mg/kg-day",103.77%
same,"% Diff, % BW Gain","male, 18.8 mg/kg-day",6.06%
same,"% Diff, Total BW change","male, 18.8 mg/kg-day",2.29%
same,"% Diff, Total Food Consumed","male, 18.8 mg/kg-day",-1.53%
same,A/G,"male, 18.8 mg/kg-day",0.85±0.03 ratio
same,ABNEUT,"male, 18.8 mg/kg-day",2.172±0.976 K/µL
same,ABRETi,"male, 18.8 mg/kg-day",179.08±30.61 10^9/L
same,ABSEOS,"male, 18.8 mg/kg-day",0.110±0.032 K/µL
same,ALB,"male, 18.8 mg/kg-day",3.17 ± 0.18 g/dL
same,ALPi,"male, 18.8 mg/kg-day",114.0±26.8 U/L
same,APTT,"male, 18.8 mg/kg-day",19.56 s
same,BUN,"male, 18.8 mg/kg-day",14.8 ± 1.4 mg/dL
same,CHOL,"male, 18.8 mg/kg-day",78.6 ± 12.0 mg/dL
same,GLOB,"male, 18.8 mg/kg-day",3.75 ± 0.18 g/dL
same,GLUC,"male, 18.8 mg/kg-day",187.8 ± 37.5 mg/dL
same,HCT,"male, 18.8 mg/kg-day",49.80±1.91%
same,HGB,"male, 18.8 mg/kg-day",15.51 ± 0.80 g/dL
same,Kidney Weight,"male, 18.8 mg/kg-day",3.11 g
same,Kidney/Body Weight,"male, 18.8 mg/kg-day",0.54%
same,Kidney/Brain Weight,"male, 18.8 mg/kg-day",144%
same,Liver Weight,"male, 18.8 mg/kg-day",14.06 g
same,Liver/Body Weight,"male, 18.8 mg/kg-day",2.41%
same,Liver/Brain Weight,"male, 18.8 mg/kg-day",649%
same,MPV,"male, 18.8 mg/kg-day",7.85 ± 0.72 fL
same,PT,"male, 18.8 mg/kg-day",15.63 s
same,RBC,"male, 18.8 mg/kg-day",8.891±0.355 M/µL
same,Total BW change,"male, 18.8 mg/kg-day",300.42 g
same,Total Food Consumed,"male, 18.8 mg/kg-day",2143 g
same,% BW Gain,"male, 37.5 mg/kg-day",101.81%
same,"% Diff, % BW Gain","male, 37.5 mg/kg-day",4.06%
same,"% Diff, Total BW change","male, 37.5 mg/kg-day",3.12%
same,"% Diff, Total Food Consumed","male, 37.5 mg/kg-day",-2.01%
same,A/G,"male, 37.5 mg/kg-day",0.86±0.07 ratio
same,ABNEUT,"male, 37.5 mg/kg-day",1.859±0.620 K/µL
same,ABRETi,"male, 37.5 mg/kg-day",192.99±15.30 10^9/L
same,ABSEOS,"male, 37.5 mg/kg-day",0.179±0.069 K/µL
same,ALB,"male, 37.5 mg/kg-day",3.17 ± 0.15 g/dL
same,ALPi,"male, 37.5 mg/kg-day",117.7±20.1 U/L
same,APTT,"male, 37.5 mg/kg-day",18.03 s
same,BUN,"male, 37.5 mg/kg-day",16.3 ± 1.2 mg/dL
same,CHOL,"male, 37.5 mg/kg-day",75.9 ± 12.3 mg/dL
same,GLOB,"male, 37.5 mg/kg-day",3.69 ± 0.27 g/dL
same,GLUC,"male, 37.5 mg/kg-day",217.1 ± 33.5 mg/dL
same,HCT,"male, 37.5 mg/kg-day",49.12±1.32%
same,HGB,"male, 37.5 mg/kg-day",15.11 ± 0.46 g/dL
same,Kidney Weight,"male, 37.5 mg/kg-day",2.95 g
same,Kidney/Body Weight,"male, 37.5 mg/kg-day",0.50%
same,Kidney/Brain Weight,"male, 37.5 mg/kg-day",134%
same,Liver Weight,"male, 37.5 mg/kg-day",13.83 g
same,Liver/Body Weight,"male, 37.5 mg/kg-day",2.34%
same,Liver/Brain Weight,"male, 37.5 mg/kg-day",627%
same,MPV,"male, 37.5 mg/kg-day",8.18 ± 0.65 fL
same,PT,"male, 37.5 mg/kg-day",16.31 s
same,RBC,"male, 37.5 mg/kg-day",8.732±0.259 M/µL
same,Total BW change,"male, 37.5 mg/kg-day",302.87 g
same,Total Food Consumed,"male, 37.5 mg/kg-day",2133 g
same,% BW Gain,"male, 75 mg/kg-day",102.83%
same,"% Diff, % BW Gain","male, 75 mg/kg-day",5.10%
same,"% Diff, Total BW change","male, 75 mg/kg-day",5.10%
same,"% Diff, Total Food Consumed","male, 75 mg/kg-day",1.92%
same,A/G,"male, 75 mg/kg-day",0.86±0.06 ratio
same,ABNEUT,"male, 75 mg/kg-day",1.731±0.709 K/µL
same,ABRETi,"male, 75 mg/kg-day",194.58±21.06 10^9/L
same,ABSEOS,"male, 75 mg/kg-day",0.132±0.036 K/µL
same,ALB,"male, 75 mg/kg-day",3.18 ± 0.15 g/dL
same,ALPi,"male, 75 mg/kg-day",121.9±37.5 U/L
same,APTT,"male, 75 mg/kg-day",17.79 s
same,BUN,"male, 75 mg/kg-day",15.8 ± 1.8 mg/dL
same,CHOL,"male, 75 mg/kg-day",67.2 ± 7.1 mg/dL
same,GLOB,"male, 75 mg/kg-day",3.70 ± 0.19 g/dL
same,GLUC,"male, 75 mg/kg-day",214.9 ± 18.3 mg/dL
same,HCT,"male, 75 mg/kg-day",50.90±1.81%
same,HGB,"male, 75 mg/kg-day",15.70 ± 0.72 g/dL
same,Kidney Weight,"male, 75 mg/kg-day",3.25 g
same,Kidney/Body Weight,"male, 75 mg/kg-day",0.54%
same,Kidney/Brain Weight,"male, 75 mg/kg-day",146%
same,Liver Weight,"male, 75 mg/kg-day",15.73 g
same,Liver/Body Weight,"male, 75 mg/kg-day",2.62%
same,Liver/Brain Weight,"male, 75 mg/kg-day",706%
same,MPV,"male, 75 mg/kg-day",7.92 ± 0.76 fL
same,PT,"male, 75 mg/kg-day",16.37 s
same,RBC,"male, 75 mg/kg-day",9.195±0.417 M/µL
same,Total BW change,"male, 75 mg/kg-day",308.68 g
same,Total Food Consumed,"male, 75 mg/kg-day",2218 g
same,% BW Gain,"male, 150 mg/kg-day",104.78%
same,"% Diff, % BW Gain","male, 150 mg/kg-day",7.09%
same,"% Diff, Total BW change","male, 150 mg/kg-day",6.62%
same,"% Diff, Total Food Consumed","male, 150 mg/kg-day",3.52%
same,A/G,"male, 150 mg/kg-day",0.85±0.05 ratio
same,ABNEUT,"male, 150 mg/kg-day",1.761±0.490 K/µL
same,ABRETi,"male, 150 mg/kg-day",181.45±26.70 10^9/L
same,ABSEOS,"male, 150 mg/kg-day",0.155±0.028 K/µL
same,ALB,"male, 150 mg/kg-day",3.16 ± 0.18 g/dL
same,ALPi,"male, 150 mg/kg-day",123.9±21.1 U/L
same,APTT,"male, 150 mg/kg-day",18.41 s
same,BUN,"male, 150 mg/kg-day",14.6 ± 1.7 mg/dL
same,CHOL,"male, 150 mg/kg-day",71.1 ± 12.3 mg/dL
same,Decrease in the adrenal/BW ratio,"male, 150 mg/kg-day",20%
same,GLOB,"male, 150 mg/kg-day",3.72 ± 0.20 g/dL
same,GLUC,"male, 150 mg/kg-day",206.8 ± 44.7 mg/dL
same,HCT,"male, 150 mg/kg-day",50.21±1.86%
same,HGB,"male, 150 mg/kg-day",15.30 ± 0.78 g/dL
same,Kidney Weight,"male, 150 mg/kg-day",3.28 g
same,Kidney/Body Weight,"male, 150 mg/kg-day",0.54%
same,Kidney/Brain Weight,"male, 150 mg/kg-day",150%
same,Liver Weight,"male, 150 mg/kg-day",15.50 g
same,Liver/Body Weight,"male, 150 mg/kg-day",2.54%
same,Liver/Brain Weight,"male, 150 mg/kg-day",709%
same,MPV,"male, 150 mg/kg-day",8.53 ± 0.84 fL
same,PT,"male, 150 mg/kg-day",16.77 s
same,RBC,"male, 150 mg/kg-day",9.254±0.319 M/µL
same,Total BW change,"male, 150 mg/kg-day",313.14 g
same,Total Food Consumed,"male, 150 mg/kg-day",2253 g
same,% BW Gain,"male, 300 mg/kg-day",102.36%
same,"% Diff, % BW Gain","male, 300 mg/kg-day",4.62%
same,"% Diff, Total BW change","male, 300 mg/kg-day",2.35%
same,"% Diff, Total Food Consumed","male, 300 mg/kg-day",0.89%
same,A/G,"male, 300 mg/kg-day",0.88±0.07 ratio
same,ABNEUT,"male, 300 mg/kg-day",1.674±0.435 K/µL
same,ABRETi,"male, 300 mg/kg-day",174.98±22.88 10^9/L
same,ABSEOS,"male, 300 mg/kg-day",0.139±0.055 K/µL
same,ALB,"male, 300 mg/kg-day",3.24 ± 0.18 g/dL
same,ALPi,"male, 300 mg/kg-day",123.2±28.8 U/L
same,APTT,"male, 300 mg/kg-day",17.66 s
same,Adrenal/BW ratio,"male, 300 mg/kg-day",no effect
same,BUN,"male, 300 mg/kg-day",14.8 ± 3.7 mg/dL
same,CHOL,"male, 300 mg/kg-day",76.0 ± 22.0 mg/dL
same,GLOB,"male, 300 mg/kg-day",3.70 ± 0.19 g/dL
same,GLUC,"male, 300 mg/kg-day",206.4 ± 24.4 mg/dL
same,HCT,"male, 300 mg/kg-day",49.25±1.52%
same,HGB,"male, 300 mg/kg-day",15.18 ± 0.47 g/dL
same,Kidney Weight,"male, 300 mg/kg-day",3.24 g
same,Kidney/Body Weight,"male, 300 mg/kg-day",0.55%
same,Kidney/Brain Weight,"male, 300 mg/kg-day",144%
same,Liver Weight,"male, 300 mg/kg-day",15.58 g
same,Liver/Body Weight,"male, 300 mg/kg-day",2.61%
same,Liver/Brain Weight,"male, 300 mg/kg-day",693%
same,MPV,"male, 300 mg/kg-day",8.58 ± 0.84 fL
same,PT,"male, 300 mg/kg-day",17.12 s
same,RBC,"male, 300 mg/kg-day",8.946±0.337 M/µL
same,Total BW change,"male, 300 mg/kg-day",300.61 g
same,Total Food Consumed,"male, 300 mg/kg-day",2196 g
